For the assay, the system named is BDF1 mice, B16 melanoma ip, median survival T/C. Briefly: NCI In Vivo Anticancer Drug Screen. Data for tumor model B16 Melanoma (intraperitoneal) in B6D2F1 (BDF1) mice. The following applies: endpoint: median survival time, higher = longer survival. In outline: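 Transplantable tumor model; survival or tumor size measured; reported as T/C, treated over vehicle control.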

Where [1] appears, read: dose: 12.5 mg/kg/injection, schedule: Q01DX009 (ip), vehicle: saline.
[2] abbreviates: dose: 25.0 mg/kg/injection, schedule: Q01DX009 (ip), vehicle: saline.
The mark [3] stands for this setting: dose: 50.0 mg/kg/injection, schedule: Q01DX009 (ip), vehicle: saline.
The mark [4] stands for this setting: dose: 100.0 mg/kg/injection, schedule: Q01DX009 (ip), vehicle: saline.
[5] abbreviates: dose: 100.0 mg/kg/injection, schedule: Q01DX009 (ip), vehicle: Klucel (hydroxypropylcellulose) (HPC).
[6] abbreviates: dose: 200.0 mg/kg/injection, schedule: Q01DX009 (ip), vehicle: Klucel (hydroxypropylcellulose) (HPC).
[7] abbreviates: dose: 12.5 mg/kg/injection, schedule: Q01DX009 (ip), vehicle: saline with Tween-80.
Setting [8] is: dose: 25.0 mg/kg/injection, schedule: Q01DX009 (ip), vehicle: saline with Tween-80.
[9] abbreviates: dose: 50.0 mg/kg/injection, schedule: Q01DX009 (ip), vehicle: Klucel (hydroxypropylcellulose) (HPC).
[10] abbreviates: dose: 12.5 mg/kg/injection, schedule: Q01DX009 (ip), vehicle: Klucel (hydroxypropylcellulose) (HPC).
[11] abbreviates: dose: 25.0 mg/kg/injection, schedule: Q01DX009 (ip), vehicle: Klucel (hydroxypropylcellulose) (HPC).

Values joined by “and” are separate entries in the source; they are usually repeats but may differ in a detail not shown here. Identical values can stand only once. Toxic doses and inconclusive results are not listed.

Regarding `OC(CCl)CN1CC[N+]2(CC1)CC[N+]1(CCN(CC(O)CCl)CC1)CC2` (stereo unspecified), the T/C (dose: 4.0 mg/kg/injection, schedule: Q03HX024 (ip), vehicle: water) was 114 % of control; the T/C (dose: 8.0 mg/kg/injection, schedule: Q03HX016 (ip), vehicle: water) is 114 % of control; the T/C (dose: 8.0 mg/kg/injection, schedule: Q03HX024 (ip), vehicle: water) was 117 % of control; the T/C under setting [1] is 116 % of control; the T/C (dose: 16.0 mg/kg/injection, schedule: Q01DX009 (ip), vehicle: water) is 114 % of control; the T/C (dose: 16.0 mg/kg/injection, schedule: Q03HX008 (ip), vehicle: water) was 113 % of control. For the same compound, the T/C reads like this: (dose: 16.0 mg/kg/injection, schedule: Q03HX016 (ip), vehicle: water) 121 % of control; (dose: 16.0 mg/kg/injection, schedule: Q03HX024 (ip), vehicle: water) 121 % of control; under setting [2], 111 % of control; (dose: 32.0 mg/kg/injection, schedule: Q03HX008 (ip), vehicle: water) 123 % of control; (dose: 44.0 mg/kg/injection, schedule: Q01DX009 (ip), vehicle: saline) 116 % of control; (dose: 66.0 mg/kg/injection, schedule: Q01DX009 (ip), vehicle: water) 151 % of control and 172 % of control. Also, the T/C (dose: 100.0 mg/kg/injection, schedule: Q01DX009 (ip), vehicle: water) was 150 % of control.

For the compound `CS(=O)(=O)OCC(=O)NCC(O)CNC(=O)COS(C)(=O)=O`, the T/C was 109 % of control (dose: 50.0 mg/kg/injection, schedule: Q01DX009 (ip), vehicle: saline with Tween-80); 104 % of control (dose: 100.0 mg/kg/injection, schedule: Q01DX009 (ip), vehicle: saline with Tween-80); 115 % of control (dose: 200.0 mg/kg/injection, schedule: Q01DX009 (ip), vehicle: saline with Tween-80).

In the case of `C/C=C(\Cl)C1=CC(=O)C23CC2C2(C)COC1(O)C3(O)O2` (stereo unspecified), the T/C (dose: 0.75 mg/kg/injection, schedule: Q01DX009 (ip), vehicle: saline with Tween-80) was 91 % of control.

Consider `CC[N+]1(C2CCC3CCC2C3O)CCOCC1` (stereo unspecified), for which the T/C under setting [2] was 105 % of control, the T/C under setting [3] was 105 % of control and the T/C under setting [4] is 105 % of control.

For `NC(=O)C1(N2CCCCC2)CCN(CCCC(=O)c2ccc(F)cc2)CC1`, the T/C is 108 % of control (dose: 6.25 mg/kg/injection, schedule: Q01DX009 (ip), vehicle: saline); 108 % of control under setting [1]; 113 % of control under setting [2]; 105 % of control under setting [3]; 105 % of control under setting [4].

Take `CC1c2cccc(Cl)c2C(=O)c2c(Cl)cccc21`: the T/C by setting is: under setting [5], 102 % of control; under setting [6], 100 % of control; (dose: 400.0 mg/kg/injection, schedule: Q01DX009 (ip), vehicle: Klucel (hydroxypropylcellulose) (HPC)) 102 % of control.

Regarding `CCCCN(CCCC)CCC(=O)c1ccc(OC)c2ccccc12`, the T/C by setting is: under setting [7], 99 % of control; under setting [8], 88 % of control.

In the case of `C#CC(C)(O)c1ccccc1` (stereo unspecified), the T/C reads like this: under setting [9], 100 % of control; under setting [5], 100 % of control; under setting [6], 103 % of control.

With `O=C(Nc1ccccc1O)/C(Cl)=C/Cl`, the T/C is 92 % of control under setting [10], 93 % of control under setting [11] and 90 % of control under setting [9].

In the case of `CCC[CH2][Pb]([CH2]CCC)([CH2]CCC)[O]C(=O)CCl`, the T/C (dose: 1.56 mg/kg/injection, schedule: Q01DX009 (ip), vehicle: Klucel (hydroxypropylcellulose) (HPC)) was 90 % of control.

In the case of `CC1=C(C)C(=O)O[C@@H]([C@](C)(O)[C@]2(O)CC[C@@]3(O)[C@@H]4C[C@H]5O[C@]56CC=CC(=O)[C@]6(C)[C@H]4CC[C@]23C)C1`, the T/C (dose: 0.78 mg/kg/injection, schedule: Q01DX009 (ip), vehicle: saline) is 102 % of control and the T/C (dose: 1.56 mg/kg/injection, schedule: Q01DX009 (ip), vehicle: saline) was 114 % of control.

Take `NNC(=O)c1ccccc1`: the T/C by setting is: under setting [1], 105 % of control; under setting [2], 97 % of control; under setting [3], 88 % of control.

Consider `[Cu+2].[NH-]C(CC(=O)O)C(=O)O.[NH-]C(CC(=O)O)C(=O)O` (stereo unspecified), for which the T/C was 98 % of control (dose: 4.68 mg/kg/injection, schedule: Q01DX009 (ip), vehicle: saline) and 101 % of control (dose: 9.37 mg/kg/injection, schedule: Q01DX009 (ip), vehicle: saline).

For `CCC(c1ccc(OC)cc1)C(CC)c1ccc(O)c(CN2CCN(C)CC2)c1` (stereo unspecified), the T/C by setting is: under setting [2], 93 % of control; under setting [3], 97 % of control.

For the compound `CCCC1CC[N-]CC1.CCCC1CC[N-]CC1.[Cl][Pt+2][Cl]`, the T/C was 100 % of control (dose: 6.25 mg/kg/injection, schedule: Q01DX009 (ip), vehicle: saline with Tween-80); 110 % of control under setting [7]; 104 % of control under setting [8].

Turning to `CCC(C)C(C(=O)OCCN(CC)CC)c1ccccc1` (stereo unspecified), the T/C is, setting by setting: under setting [10], 90 % of control; under setting [11], 96 % of control; under setting [9], 90 % of control and 93 % of control.

As to `CN(C)CC/C=C1\c2ccccc2Sc2ccc(Cl)cc21`, the T/C was 95 % of control (dose: 0.12 mg/kg/injection, schedule: Q01DX009 (ip), vehicle: Klucel (hydroxypropylcellulose) (HPC)); 86 % of control (dose: 0.24 mg/kg/injection, schedule: Q01DX009 (ip), vehicle: Klucel (hydroxypropylcellulose) (HPC)); 88 % of control (dose: 0.48 mg/kg/injection, schedule: Q01DX009 (ip), vehicle: Klucel (hydroxypropylcellulose) (HPC)); 86 % of control (dose: 1.95 mg/kg/injection, schedule: Q01DX009 (ip), vehicle: Klucel (hydroxypropylcellulose) (HPC)); 105 % of control (dose: 7.0 micrograms/kg/injection, schedule: Q01DX009 (ip), vehicle: Klucel (hydroxypropylcellulose) (HPC)); 107 % of control (dose: 15.0 micrograms/kg/injection, schedule: Q01DX009 (ip), vehicle: Klucel (hydroxypropylcellulose) (HPC)). Besides, the T/C by setting is: (dose: 30.0 micrograms/kg/injection, schedule: Q01DX009 (ip), vehicle: Klucel (hydroxypropylcellulose) (HPC)) 105 % of control; (dose: 60.0 micrograms/kg/injection, schedule: Q01DX009 (ip), vehicle: Klucel (hydroxypropylcellulose) (HPC)) 105 % of control; (dose: 120.0 micrograms/kg/injection, schedule: Q01DX009 (ip), vehicle: Klucel (hydroxypropylcellulose) (HPC)) 98 % of control.

The values above are taken from PubChem BioAssay AID192 (DTP/NCI, 2004).
